Reference: patent US7259177B2, “Cycloalkylmethoxy-substituted acetic acid derivatives, processes for their preparation and their use as pharmaceuticals” (Sanofi-Aventis Deutschland GmbH, priority 2003, dated 2007)
Where a name gives a salt, the structure may show the parent alone.

Biological target: T1, human PPARα (Homo sapiens, UniProt Q07869)
T1 construct: amino acids S167-Y468; expressed in transfected cells; host or cells: HEK (human embryo kidney) cells, stably transfected with pcDNA3 carrying the fusion construct
T1 sequence (Q07869 167-468): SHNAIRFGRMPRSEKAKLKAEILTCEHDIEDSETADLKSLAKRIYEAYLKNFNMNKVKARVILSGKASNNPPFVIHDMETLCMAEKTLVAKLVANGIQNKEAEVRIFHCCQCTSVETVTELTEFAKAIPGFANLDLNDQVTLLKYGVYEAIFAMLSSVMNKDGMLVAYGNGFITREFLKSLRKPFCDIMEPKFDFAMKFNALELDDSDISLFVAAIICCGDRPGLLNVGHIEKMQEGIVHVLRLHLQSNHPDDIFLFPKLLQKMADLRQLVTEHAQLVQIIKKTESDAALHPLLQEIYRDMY
Assay: Cellular PPARalpha assay (stably transfected HEK PPARalpha reporter cell line, luciferase)
Type: cell-based
Details: 24 h incubation, luciferase readout
Description: (A) Determination of EC50 Values of PPAR Agonists in the Cellular PPARalpha Assay
The potency of substances that bind to human PPARα and activate in an agonistic manner is analyzed using a stably transfected HEK cell line (HEK=human embryo kidney) which is referred to here as PPARalpha reporter cell line. It contains two genetic elements, a luciferase reporter element (pΔM-GAL4-Luc-Zeo) and a PPARalpha fusion protein (GR-GAL4-humanPPARα-LBD) that mediates expression of the luciferase reporter element depending on a PPARalpha ligand. The stably and constitutively expressed fusion protein GR-GAL4-humanPPARalpha-LBD binds in the cell nucleus of the PPARalpha reporter cell line via the GAL4 protein portion to the GAL4 DNA binding motifs 5′-upstream of the luciferase reporter element which is integrated in the genome of the cell line. There is only little expression of the luciferase reporter gene without addition of a PPARalpha ligand if fatty acid-depleted fetal calf serum (cs-FCS) is used in the assay. PPARα ligands bind and activate the PPARα fusion protein and thereby bring about expression of the luciferase reporter gene. The luciferase which is formed can be detected by means of chemiluminescence via an appropriate substrate.
The PPARalpha reporter cell line was prepared in 2 stages. Firstly, the luciferase reporter element was constructed and stably transfected into HEK cells. For this purpose, five binding sites of the yeast transcription factor GAL4 (each 5′-CGGAGTACTGTCCTCCGAG-3′ (SEQ ID NO:1)) were cloned in 5′-upstream of a 68 bp-long minimal MMTV promoter (Genbank Accession # V01175). The minimal MMTV promoter section contains a CCAAT box and a TATA element in order to enable efficient transcription by RNA polymerase II. The cloning and sequencing of the GAL4-MMTV construct took place in analogy to the description of Sambrook J. et. al. (Molecular cloning, Cold Spring Harbor Laboratory Press, 1989). Then the complete Photinus pyralis gene (Genbank Accession # M15077) was cloned in 3′-downstream of the GAL4-MMTV element. After sequencing, the luceriferase reporter element consisting of five GAL4 binding sites, MMTV promoter and luciferase gene was recloned into a plasmid which confers zeocin resistance in order to obtain the plasmid pΔM-GAL4-Luc-Zeo. This vector was transfected into HEK cells in accordance with the statements in Ausubel, F. M. et al. (Current protocols in molecular biology, Vol.1-3, John Wiley & Sons, Inc., 1995). […] In a second step, the PPARalpha fusion protein (GR-GAL4-humanPPARalpha-LBD) was introduced into the stable cell clone described. For this purpose, initially the cDNA coding for the N-terminal 76 amino acids of the glucocorticoid receptor (Genbank Accession # P04150) was linked to the cDNA section coding for amino acids 1-147 of the yeast transcription factor GAL4 (Genbank Accession # P04386). The cDNA of the ligand-binding domain of the human PPARalpha receptor (amino acids S167-Y468; Genbank Accession # S74349) was cloned in at the 3′-end of this GR-GAL4 construct. The fusion construct prepared in this way (GR-GAL4-humanPPARalpha-LBD) was recloned into the plasmid pcDNA3 (from Invitrogen) in order to enable constitutive expression therein by the cytomegalovirus promoter. This plasmid was linearized with a restriction endonuclease and stably transfected into the previously described cell clone containing the luciferase reporter element. The finished PPARalpha reporter cell line that contains a luciferase reporter element and constitutively expresses the PPARalpha fusion protein (GR-GAL4-human PPARalpha-LBD) was isolated by selection with zeocin (0.5 mg/ml) and G418 (0.5 mg/ml).
The activity of PPARalpha agonists is determined in a 3-day assay described below: […]

Row | SMILES | EC50
1 | Cc1ccc(-c2nc(CO[C@@H]3CCC[C@H](COC(Cc4ccccc4)C(=O)O)C3)c(C)o2)cc1 (relative stereo) [Example 4, 2-[cis-3-(5-methyl-2-p-tolyloxazol-4-ylmethoxy)cyclohexyl-methoxy]-3-phenylpropionic acid] | 25 nM
2 | CCC(SCC1CCCC(OCc2nc(-c3ccc(C)cc3)oc2C)C1)C(=O)O (stereo not drawn) [Example 24, 2-[cis-3-(5-methyl-2-p-tolyloxazol-4-ylmethoxy)cyclohexylmethylsulfanyl]butyric acid] | 0.3 nM
3 | Cc1ccc(-c2nc(COC3CCCC(CN(Cc4ccccc4)[C@H](C(=O)O)C(C)C)C3)c(C)o2)cc1 (mixture of isomers) [Example 51, (S)-2-{benzyl-[cis-3-(5-methyl-2-p-tolyloxazol-4-ylmethoxy)-cyclohexylmethyl]amino}-3-methylbutyric acid trifluoroacetic acid salt] | 12 nM
4 | COc1cccc(-c2nc(CO[C@@H]3CCC[C@H](CCC(C(=O)O)C(C)C)C3)c(C)o2)c1 (relative stereo) [Example 74, 2-(2-{cis-3-[2-(3-methoxyphenyl)-5-methyloxazol-4-ylmethoxy]cyclohexyl}ethyl)-3-methylbutyric acid] | 0.4 nM
5 | CCCCCC(C(=O)O)S(=O)(=O)CC1CCCC(OCc2nc(-c3ccc(C)cc3)oc2C)C1 (stereo not drawn) [Example 38, 2-[cis-3-(5-methyl-2-p-tolyloxazol-4-ylmethoxy)cyclohexylmethylsulfonyl]heptanoic acid] | 8.5 nM
6 | CCc1oc(-c2ccc3ccccc3c2)nc1COC[C@@H]1CCC[C@H](COC(C)(C)C(=O)O)C1 (racemic) [Example 64, 2-[cis-3-(5-ethyl-2-(2-naphthyl)oxazol-4-yl-methoxymethyl)cyclohexylmethoxy]-2-methylpropionic acid] | 0.4 nM
7 | Cc1ccc(-c2nc(CO[C@@H]3CCC[C@H](COC4(C(=O)O)CCCC4)C3)c(C)o2)cc1 (relative stereo) [Example 9, 1-[cis-3-(5-Methyl-2-p-tolyloxazol-4-ylmethoxy)cyclohexylmethoxy]cyclo-pentanecarboxylic acid] | 4.3 nM
8 | CCCCCC(C(=O)O)[S+]([O-])CC1CCCC(OCc2nc(-c3ccc(C)cc3)oc2C)C1 (stereo not drawn) [Example 33, 2-[cis-3-(5-methyl-2-p-tolyloxazol-4-ylmethoxy)cyclohexylmethylsulfinyl]heptanoic acid] | 17 nM

Further lines, results first:

Row | EC50 | SMILES
9 | 1.8 nM | Cc1ccc(-c2nc(CO[C@H]3CCC[C@@H](COC(C)(C)C(=O)O)C3)c(C)o2)cc1 [Example 8a, 2-[(1R,3S)-3-(5-Methyl-2-p-tolyloxazol-4-ylmethoxy)cyclohexylmethoxy]-2-methylpropionic Acid]
10 | 79 nM | Cc1ccc(-c2nc(COC3CCCC(CN[C@H](C(=O)O)C(C)C)C3)c(C)o2)cc1 (mixture of isomers) [Example 42, (S)-3-Methyl-2{[cis-3-(5-methyl-2-p-tolyloxazol-4-ylmethoxy)cyclohexyl-methyl]amino}butyric acid]
11 | 0.07 nM | Cc1ccc(-c2nc(CO[C@@H]3CCC[C@H](CSCC(=O)O)C3)c(C)o2)cc1 (racemic) [Example 22]
12 | 4 nM | Cc1oc(-c2ccc(C(F)(F)F)cc2)nc1COC1CCCC(COC(C)(C)C(=O)O)C1 [Example 16, 2-methyl-2-{(1R,3S)-cis-3-[5-methyl-2-(4-trifluoromethyl-phenyl)oxazol-4-ylmethoxy]cyclohexylmethoxy}propionic acid]
